Reference: ChEMBL document CHEMBL3132769, “Fragment growing to retain or alter the selectivity of anchored kinase hinge-binding fragments” (Medchemcomm, 2014)

Legend:
[1] = molecular target: Protein kinase C delta type (Homo sapiens) (UniProt Q05655); assay: Inhibition of human truncated PKC delta expressed in baculovirus assessed as substrate phosphorylation using fluorescence-labelled peptides as substrate at 95 uM after 90 mins by microfluidic peptide phosphorylation assay
[2] = molecular target: Fibroblast growth factor receptor 2 (Homo sapiens) (UniProt P21802); assay: Inhibition of human FGFR2 catalytic domain expressed in baculovirus assessed as substrate phosphorylation using fluorescence-labelled peptides as substrate at 95 uM after 90 mins by microfluidic peptide phosphorylation assay
[3] = molecular target: Cyclin-dependent kinase 2 (Homo sapiens) (UniProt P24941); assay: Inhibition of human full length CDK2 expressed in baculovirus assessed as substrate phosphorylation using fluorescence-labelled peptides as substrate at 0.06 uM after 90 mins by microfluidic peptide phosphorylation assay
[4] = molecular target: Proto-oncogene tyrosine-protein kinase Src (Homo sapiens) (UniProt P12931); assay: Inhibition of human full length SRC expressed in baculovirus assessed as substrate phosphorylation using fluorescence-labelled peptides as substrate at 0.1 uM after 90 mins by microfluidic peptide phosphorylation assay
[5] = molecular target: T1, cGMP-dependent protein kinase 1 (Homo sapiens) (UniProt Q13976); settings: 0.1 uM
T1 sequence (whole entry): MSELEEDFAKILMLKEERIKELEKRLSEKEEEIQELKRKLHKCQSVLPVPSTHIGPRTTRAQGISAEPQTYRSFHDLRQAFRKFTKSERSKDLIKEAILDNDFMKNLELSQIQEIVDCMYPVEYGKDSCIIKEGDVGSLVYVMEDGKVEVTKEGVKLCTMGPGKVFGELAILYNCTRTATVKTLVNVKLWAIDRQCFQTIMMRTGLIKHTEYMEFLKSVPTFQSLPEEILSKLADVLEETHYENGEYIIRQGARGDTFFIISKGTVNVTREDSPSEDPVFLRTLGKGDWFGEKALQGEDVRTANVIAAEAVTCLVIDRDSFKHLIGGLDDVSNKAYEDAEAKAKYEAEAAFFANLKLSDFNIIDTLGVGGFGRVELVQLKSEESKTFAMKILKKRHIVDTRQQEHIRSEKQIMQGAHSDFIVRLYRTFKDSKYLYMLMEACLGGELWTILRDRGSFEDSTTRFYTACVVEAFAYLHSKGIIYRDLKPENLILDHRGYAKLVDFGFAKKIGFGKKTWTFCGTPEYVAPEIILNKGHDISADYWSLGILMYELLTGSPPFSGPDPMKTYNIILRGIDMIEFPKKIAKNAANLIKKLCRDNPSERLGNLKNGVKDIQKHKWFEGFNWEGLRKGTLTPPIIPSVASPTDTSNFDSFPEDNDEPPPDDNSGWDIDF
Description: Inhibition of human full length PKG-1a expressed in baculovirus assessed as substrate phosphorylation using fluorescence-labelled peptides as substrate at 0.1 uM after 90 mins by microfluidic peptide phosphorylation assay

[6] = molecular target: Dual specificity tyrosine-phosphorylation-regulated kinase 1A (Rattus norvegicus) (UniProt Q63470); assay: Inhibition of rat full length DYRK1a expressed in Escherichia coli cell assessed as substrate phosphorylation using fluorescence-labelled peptides as substrate at […] after 90 mins by microfluidic peptide phosphorylation assay
[7] = molecular target: Serine/threonine-protein kinase PAK 2 (Homo sapiens) (UniProt Q13177); assay: Inhibition of human truncated PAK2 expressed in Escherichia coli cell assessed as substrate phosphorylation using fluorescence-labelled peptides as substrate at 70 uM after 90 mins by microfluidic peptide phosphorylation assay
[8] = molecular target: RAC-alpha serine/threonine-protein kinase (Homo sapiens) (UniProt P31749); assay: Inhibition of human AKT1 catalytic domain expressed in baculovirus assessed as substrate phosphorylation using fluorescence-labelled peptides as substrate at 0.2 uM after 90 mins by microfluidic peptide phosphorylation assay
[9] = molecular target: Tyrosine-protein kinase Fyn (Homo sapiens) (UniProt P06241); assay: Inhibition of human full length FYN expressed in baculovirus assessed as substrate phosphorylation using fluorescence-labelled peptides as substrate at 2 uM after 90 mins by microfluidic peptide phosphorylation assay
[10] = molecular target: T2, Serine/threonine-protein kinase DCLK2 (Homo sapiens) (UniProt Q8N568); assay: Inhibition of human full length DCAMKL2 expressed in baculovirus assessed as substrate phosphorylation using fluorescence-labelled peptides as substrate at 8 uM after 90 mins by microfluidic peptide phosphorylation assay
T2 sequence (whole entry): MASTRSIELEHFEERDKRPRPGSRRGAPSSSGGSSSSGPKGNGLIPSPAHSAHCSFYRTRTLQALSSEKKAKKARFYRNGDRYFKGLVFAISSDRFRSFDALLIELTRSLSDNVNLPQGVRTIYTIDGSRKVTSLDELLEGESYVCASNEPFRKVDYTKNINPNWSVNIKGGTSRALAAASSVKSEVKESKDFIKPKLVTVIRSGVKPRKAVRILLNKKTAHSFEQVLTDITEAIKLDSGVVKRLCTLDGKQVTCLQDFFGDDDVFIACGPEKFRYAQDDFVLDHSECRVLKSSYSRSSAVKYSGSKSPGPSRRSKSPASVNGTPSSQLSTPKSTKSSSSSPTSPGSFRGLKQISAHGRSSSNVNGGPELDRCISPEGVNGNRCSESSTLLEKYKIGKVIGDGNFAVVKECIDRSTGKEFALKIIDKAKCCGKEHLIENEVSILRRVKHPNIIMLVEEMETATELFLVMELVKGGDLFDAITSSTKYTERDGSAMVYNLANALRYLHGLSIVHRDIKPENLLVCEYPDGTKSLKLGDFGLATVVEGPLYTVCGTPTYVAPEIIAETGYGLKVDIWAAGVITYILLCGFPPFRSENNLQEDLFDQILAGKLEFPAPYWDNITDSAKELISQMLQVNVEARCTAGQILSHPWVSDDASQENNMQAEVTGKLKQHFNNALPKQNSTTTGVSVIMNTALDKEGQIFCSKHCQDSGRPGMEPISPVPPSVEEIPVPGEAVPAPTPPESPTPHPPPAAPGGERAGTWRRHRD

[11] = molecular target: Tyrosine-protein kinase Fer (Homo sapiens) (UniProt P16591); assay: Inhibition of human FER catalytic domain expressed in baculovirus assessed as substrate phosphorylation using fluorescence-labelled peptides as substrate at 8 uM after 90 mins by microfluidic peptide phosphorylation assay
Tyrosine-protein kinase Fer (Homo sapiens), sequence (P16591 whole entry, looked up, the tested form may be a part): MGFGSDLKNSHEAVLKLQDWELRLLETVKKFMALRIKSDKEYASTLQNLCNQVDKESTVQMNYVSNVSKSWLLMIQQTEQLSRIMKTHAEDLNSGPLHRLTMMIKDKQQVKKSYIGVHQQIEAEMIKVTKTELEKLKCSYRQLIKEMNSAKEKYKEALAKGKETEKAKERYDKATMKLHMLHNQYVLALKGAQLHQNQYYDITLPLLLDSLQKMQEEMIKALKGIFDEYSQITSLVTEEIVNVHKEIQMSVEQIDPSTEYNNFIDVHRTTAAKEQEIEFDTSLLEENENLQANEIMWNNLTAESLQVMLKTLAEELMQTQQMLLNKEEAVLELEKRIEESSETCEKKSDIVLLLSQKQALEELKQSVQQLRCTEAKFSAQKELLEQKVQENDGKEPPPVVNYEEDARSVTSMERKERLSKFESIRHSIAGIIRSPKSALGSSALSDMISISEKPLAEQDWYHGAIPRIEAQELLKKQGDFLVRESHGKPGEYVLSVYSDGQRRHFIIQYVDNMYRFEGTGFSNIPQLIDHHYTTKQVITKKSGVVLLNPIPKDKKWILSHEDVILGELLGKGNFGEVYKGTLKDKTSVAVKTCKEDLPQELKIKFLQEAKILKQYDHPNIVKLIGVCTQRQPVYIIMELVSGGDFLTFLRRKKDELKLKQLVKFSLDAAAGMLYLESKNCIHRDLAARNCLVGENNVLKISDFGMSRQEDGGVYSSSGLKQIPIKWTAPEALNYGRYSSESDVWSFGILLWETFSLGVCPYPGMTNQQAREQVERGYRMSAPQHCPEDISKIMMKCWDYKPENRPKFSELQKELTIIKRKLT

Fibroblast growth factor receptor 2 (Homo sapiens), sequence (P21802 22-821 limits assumed): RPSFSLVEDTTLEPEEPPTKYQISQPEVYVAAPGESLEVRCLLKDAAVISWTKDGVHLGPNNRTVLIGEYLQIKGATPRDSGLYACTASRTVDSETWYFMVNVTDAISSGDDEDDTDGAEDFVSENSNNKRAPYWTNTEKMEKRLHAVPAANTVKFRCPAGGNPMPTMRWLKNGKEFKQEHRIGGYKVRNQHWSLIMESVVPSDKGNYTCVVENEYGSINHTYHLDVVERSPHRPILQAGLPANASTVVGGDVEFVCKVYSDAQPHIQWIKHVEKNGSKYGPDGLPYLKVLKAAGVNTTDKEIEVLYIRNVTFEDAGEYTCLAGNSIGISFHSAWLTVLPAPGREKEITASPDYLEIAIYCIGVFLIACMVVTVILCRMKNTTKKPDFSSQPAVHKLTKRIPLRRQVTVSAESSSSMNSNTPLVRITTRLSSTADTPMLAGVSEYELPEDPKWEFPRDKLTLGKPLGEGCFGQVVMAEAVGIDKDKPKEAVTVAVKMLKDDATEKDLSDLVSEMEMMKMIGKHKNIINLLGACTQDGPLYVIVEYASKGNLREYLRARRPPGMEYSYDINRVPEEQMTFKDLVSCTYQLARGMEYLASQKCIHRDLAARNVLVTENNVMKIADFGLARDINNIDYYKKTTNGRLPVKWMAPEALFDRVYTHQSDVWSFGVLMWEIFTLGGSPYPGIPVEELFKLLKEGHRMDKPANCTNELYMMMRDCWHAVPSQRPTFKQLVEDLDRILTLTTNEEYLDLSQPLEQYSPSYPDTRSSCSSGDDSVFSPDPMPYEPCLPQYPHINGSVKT
Proto-oncogene tyrosine-protein kinase Src (Homo sapiens), sequence (P12931 2-536 limits assumed): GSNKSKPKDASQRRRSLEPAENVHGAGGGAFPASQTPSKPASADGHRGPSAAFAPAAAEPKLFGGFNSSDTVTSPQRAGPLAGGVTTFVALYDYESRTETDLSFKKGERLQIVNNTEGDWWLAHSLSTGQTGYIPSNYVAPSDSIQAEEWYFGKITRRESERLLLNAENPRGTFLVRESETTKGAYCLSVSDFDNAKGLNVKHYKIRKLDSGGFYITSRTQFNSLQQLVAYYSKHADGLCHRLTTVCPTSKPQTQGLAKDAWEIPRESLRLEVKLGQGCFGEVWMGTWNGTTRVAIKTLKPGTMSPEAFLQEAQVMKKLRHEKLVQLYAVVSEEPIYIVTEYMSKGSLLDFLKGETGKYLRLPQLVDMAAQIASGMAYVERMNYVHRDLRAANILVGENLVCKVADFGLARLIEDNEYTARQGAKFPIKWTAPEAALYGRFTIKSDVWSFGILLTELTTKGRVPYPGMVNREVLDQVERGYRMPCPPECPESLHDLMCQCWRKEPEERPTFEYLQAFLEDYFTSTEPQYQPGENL
Serine/threonine-protein kinase PAK 2 (Homo sapiens), sequence (Q13177 whole entry, the tested form may be a part): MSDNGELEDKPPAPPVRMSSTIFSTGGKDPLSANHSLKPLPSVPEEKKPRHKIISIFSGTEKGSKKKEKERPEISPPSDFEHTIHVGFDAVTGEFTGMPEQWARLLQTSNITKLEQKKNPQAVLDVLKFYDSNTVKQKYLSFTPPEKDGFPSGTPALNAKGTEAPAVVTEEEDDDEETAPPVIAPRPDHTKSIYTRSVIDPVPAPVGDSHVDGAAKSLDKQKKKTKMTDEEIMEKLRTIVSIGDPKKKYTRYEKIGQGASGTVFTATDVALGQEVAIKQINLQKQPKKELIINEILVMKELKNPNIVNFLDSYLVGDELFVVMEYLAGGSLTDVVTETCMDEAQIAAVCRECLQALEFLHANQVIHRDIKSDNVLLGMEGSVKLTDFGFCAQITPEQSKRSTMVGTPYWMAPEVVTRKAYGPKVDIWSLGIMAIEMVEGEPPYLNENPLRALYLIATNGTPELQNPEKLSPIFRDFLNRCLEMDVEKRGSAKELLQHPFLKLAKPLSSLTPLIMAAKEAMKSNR
Protein kinase C delta type (Homo sapiens), sequence (Q05655 whole entry, looked up, the tested form may be a part): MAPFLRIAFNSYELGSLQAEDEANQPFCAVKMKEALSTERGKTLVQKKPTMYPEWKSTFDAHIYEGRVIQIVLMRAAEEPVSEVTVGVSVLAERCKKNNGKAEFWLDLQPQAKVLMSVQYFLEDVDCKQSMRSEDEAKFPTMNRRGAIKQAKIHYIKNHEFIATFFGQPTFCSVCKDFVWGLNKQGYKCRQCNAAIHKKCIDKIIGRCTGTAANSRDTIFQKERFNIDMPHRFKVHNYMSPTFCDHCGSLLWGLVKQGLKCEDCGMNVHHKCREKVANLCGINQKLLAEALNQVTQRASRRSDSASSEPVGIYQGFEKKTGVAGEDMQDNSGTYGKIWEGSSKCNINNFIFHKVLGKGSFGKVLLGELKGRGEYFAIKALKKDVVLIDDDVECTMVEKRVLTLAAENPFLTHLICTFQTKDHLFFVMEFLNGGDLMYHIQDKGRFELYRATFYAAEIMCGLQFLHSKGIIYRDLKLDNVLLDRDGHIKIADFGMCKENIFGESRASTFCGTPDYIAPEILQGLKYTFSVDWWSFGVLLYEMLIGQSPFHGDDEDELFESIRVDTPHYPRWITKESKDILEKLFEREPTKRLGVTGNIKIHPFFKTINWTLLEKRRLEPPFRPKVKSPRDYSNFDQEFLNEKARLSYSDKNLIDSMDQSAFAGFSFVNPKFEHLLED
Tyrosine-protein kinase Fyn (Homo sapiens), sequence (P06241 2-537 limits assumed): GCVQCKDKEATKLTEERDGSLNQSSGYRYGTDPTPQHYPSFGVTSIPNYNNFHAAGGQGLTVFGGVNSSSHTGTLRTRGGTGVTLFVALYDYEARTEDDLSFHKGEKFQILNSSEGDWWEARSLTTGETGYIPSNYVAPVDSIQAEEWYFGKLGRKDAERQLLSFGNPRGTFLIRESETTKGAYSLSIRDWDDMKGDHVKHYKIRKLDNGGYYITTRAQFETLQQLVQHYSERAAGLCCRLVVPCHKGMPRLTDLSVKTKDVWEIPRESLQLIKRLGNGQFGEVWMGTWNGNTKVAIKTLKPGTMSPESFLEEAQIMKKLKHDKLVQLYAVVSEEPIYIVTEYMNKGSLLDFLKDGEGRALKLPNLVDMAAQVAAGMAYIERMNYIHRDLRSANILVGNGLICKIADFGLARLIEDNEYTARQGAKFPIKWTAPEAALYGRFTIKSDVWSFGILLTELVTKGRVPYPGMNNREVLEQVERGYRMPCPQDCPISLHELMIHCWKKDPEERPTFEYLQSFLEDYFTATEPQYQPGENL
RAC-alpha serine/threonine-protein kinase (Homo sapiens), sequence (P31749 whole entry, the tested form may be a part): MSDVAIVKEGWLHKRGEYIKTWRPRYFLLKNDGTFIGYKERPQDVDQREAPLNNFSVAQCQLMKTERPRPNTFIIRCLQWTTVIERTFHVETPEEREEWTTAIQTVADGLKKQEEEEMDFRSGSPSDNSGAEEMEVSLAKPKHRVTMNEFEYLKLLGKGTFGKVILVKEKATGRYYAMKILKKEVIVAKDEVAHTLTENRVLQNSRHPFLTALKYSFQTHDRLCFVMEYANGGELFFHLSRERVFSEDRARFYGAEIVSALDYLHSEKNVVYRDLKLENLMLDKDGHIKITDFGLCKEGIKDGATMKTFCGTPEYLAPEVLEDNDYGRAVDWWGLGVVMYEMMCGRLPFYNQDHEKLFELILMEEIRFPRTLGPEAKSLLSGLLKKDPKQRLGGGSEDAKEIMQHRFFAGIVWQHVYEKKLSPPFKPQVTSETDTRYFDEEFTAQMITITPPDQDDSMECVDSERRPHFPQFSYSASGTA

NCCc1ccc(-c2ncnc3[nH]cnc23)cc1
inhibition [1]: 72% | inhibition [2]: 36%

NC1(Cc2ccc(Cl)cc2)CCN(c2ncnc3[nH]ccc23)CC1
inhibition [3]: 1%

C[C@H](CN(C)C)Oc1nc(Nc2cc3cccc(Cl)c3cn2)cnc1C#N
inhibition [4]: 3% | inhibition [5]: 0%

COC(=O)c1cnc(Nc2cnc(C#N)cn2)cc1NCC1CCNCC1
inhibition [6]: 1.5%

CNCc1ccc(-c2ncnc3[nH]cnc23)cc1
inhibition [7]: 26%

Clc1ccc(C2(c3ccc(-c4ncnc5[nH]cnc45)cc3)CCNCC2)cc1
inhibition [8]: 94%

NC1CCN(c2ncnc3[nH]ccc23)CC1
inhibition [9]: 5%

NCC1CCN(c2ncnc3[nH]ccc23)CC1
inhibition [10]: 21% | inhibition [11]: 1.5%
